# Assay results as given in patent US20210371440A1, “TLR7 AND / OR TLR8 AGONISTS” (GLAXOSMITHKLINE BIOLOGICALS SA, priority 2018, published 2021).
# How the values were obtained:
# human TLR7 = molecular target: T1, human TLR7 (Homo sapiens, UniProt Q9NYK1); test: HEK293 hTLR7 NFKB-SEAP reporter assay; type: cell-based; conditions: for EC50: HEK293 stably transfected with hTLR7, 24 h stimulation, aqueous formulations of choline salts (2% glycerol), SEAP readout, read-out: TLR7 ED50; for TLR7/8 ratio: ratio of TLR7 ED50 to TLR8 ED50, HEK293 reporter cells
# T1 construct: host or cells: HEK293
# T1 sequence (Q9NYK1 27-1049): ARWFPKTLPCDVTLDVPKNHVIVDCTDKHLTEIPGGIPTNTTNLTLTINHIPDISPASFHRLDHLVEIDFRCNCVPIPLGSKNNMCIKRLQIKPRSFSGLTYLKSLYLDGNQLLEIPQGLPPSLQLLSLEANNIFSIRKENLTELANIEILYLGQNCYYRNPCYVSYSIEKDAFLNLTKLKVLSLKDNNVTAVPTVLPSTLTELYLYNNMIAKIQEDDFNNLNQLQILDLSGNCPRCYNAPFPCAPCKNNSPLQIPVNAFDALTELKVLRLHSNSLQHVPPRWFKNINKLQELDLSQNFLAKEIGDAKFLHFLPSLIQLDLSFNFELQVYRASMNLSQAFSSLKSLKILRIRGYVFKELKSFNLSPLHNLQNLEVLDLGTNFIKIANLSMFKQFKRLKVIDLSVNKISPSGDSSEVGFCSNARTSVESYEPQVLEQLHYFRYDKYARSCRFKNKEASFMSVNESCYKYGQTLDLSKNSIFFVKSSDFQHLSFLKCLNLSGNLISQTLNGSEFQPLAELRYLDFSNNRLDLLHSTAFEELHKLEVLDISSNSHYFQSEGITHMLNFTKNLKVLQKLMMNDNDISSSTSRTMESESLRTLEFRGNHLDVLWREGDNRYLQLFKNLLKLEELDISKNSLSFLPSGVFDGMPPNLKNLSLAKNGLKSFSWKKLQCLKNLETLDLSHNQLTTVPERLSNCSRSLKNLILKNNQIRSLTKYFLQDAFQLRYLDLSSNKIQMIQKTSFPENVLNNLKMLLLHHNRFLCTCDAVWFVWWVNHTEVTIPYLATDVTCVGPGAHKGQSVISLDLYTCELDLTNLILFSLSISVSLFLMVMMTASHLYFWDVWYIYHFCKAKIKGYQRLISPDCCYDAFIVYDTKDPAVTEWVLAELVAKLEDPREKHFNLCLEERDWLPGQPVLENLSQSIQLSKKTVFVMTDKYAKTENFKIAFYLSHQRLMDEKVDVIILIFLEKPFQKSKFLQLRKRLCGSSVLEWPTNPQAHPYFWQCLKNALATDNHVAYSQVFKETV
# Experimental: (§1) Determination of TLR agonist activity was performed using the HEK293 binding assay.
# (§2) This assay measures TLR7 and TLR8 selectivity and potency of the compounds tested. HEK293 cells expressing human TLR7 or TLR8 and NFKB responsive Secreted Embryonic Alkaline Phosphatase (SEAP) reporter gene were obtained from InvitroGen (San Diego, Calif.). These cells were maintained in culture media of Dulbecco's Modified Eagle Medium (DMEM) (Invitrogen, Grand Island, N.Y.), 10% Fetal Bovine Serum (FBS) (Sigma, St. Louis, Mo.) and selection antibiotics (Invitrogen, and Invitrogen). HEK293 stably transfected with human TLR7 (hTLR7) or human TLR8 (hTLR8) were stimulated for 24 h with aqueous formulations of compounds and culture supernatants were analysed for NFKB activation using the colorimetric SEAP detection kit QuantBlue (InvitroGen).
# (§3) Choline salts of the compounds were prepared in aqueous solution (2% glycerol) and sonicated to reduce particle size to 120-370 nm.
# human TLR8 = molecular target: T2, human TLR8 (Homo sapiens, UniProt Q9NR97); test: HEK293 hTLR8 NFKB-SEAP reporter assay; type: cell-based; conditions: for EC50: HEK293 stably transfected with hTLR8, 24 h stimulation, aqueous formulations of choline salts (2% glycerol), SEAP readout, read-out: TLR8 ED50
# T2 construct: host or cells: HEK293
# T2 sequence (Q9NR97 27-1041): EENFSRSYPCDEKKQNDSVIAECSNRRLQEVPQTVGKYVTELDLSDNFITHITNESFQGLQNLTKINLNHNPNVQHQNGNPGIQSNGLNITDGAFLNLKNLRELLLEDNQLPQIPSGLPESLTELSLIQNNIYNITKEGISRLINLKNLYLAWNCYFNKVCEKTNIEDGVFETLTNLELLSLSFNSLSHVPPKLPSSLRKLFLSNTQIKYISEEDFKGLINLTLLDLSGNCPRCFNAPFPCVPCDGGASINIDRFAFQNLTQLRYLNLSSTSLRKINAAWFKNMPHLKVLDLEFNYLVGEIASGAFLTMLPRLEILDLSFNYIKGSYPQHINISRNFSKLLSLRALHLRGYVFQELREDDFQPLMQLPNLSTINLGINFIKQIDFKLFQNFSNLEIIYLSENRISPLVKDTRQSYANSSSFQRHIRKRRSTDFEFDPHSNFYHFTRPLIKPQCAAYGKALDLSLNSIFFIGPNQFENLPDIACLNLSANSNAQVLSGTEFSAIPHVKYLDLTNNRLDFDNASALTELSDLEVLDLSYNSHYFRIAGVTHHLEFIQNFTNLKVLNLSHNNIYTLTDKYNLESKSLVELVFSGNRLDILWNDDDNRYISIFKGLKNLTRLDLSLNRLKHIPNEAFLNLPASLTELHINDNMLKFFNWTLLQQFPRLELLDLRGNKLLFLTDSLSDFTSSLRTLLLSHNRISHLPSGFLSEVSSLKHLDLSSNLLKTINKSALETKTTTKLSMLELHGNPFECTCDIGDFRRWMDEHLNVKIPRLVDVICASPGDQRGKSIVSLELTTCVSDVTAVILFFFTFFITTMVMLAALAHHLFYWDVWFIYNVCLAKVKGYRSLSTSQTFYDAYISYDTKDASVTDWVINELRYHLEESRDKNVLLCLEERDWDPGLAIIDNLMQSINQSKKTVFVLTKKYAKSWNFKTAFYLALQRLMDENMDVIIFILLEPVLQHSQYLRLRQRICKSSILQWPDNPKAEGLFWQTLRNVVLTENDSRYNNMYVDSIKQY
# Experimental: as §1, §2, §3
Compound,EC50 (human TLR7),TLR7/8 ratio (human TLR7),EC50 (human TLR8),"hTLR7 activity compared with parent core oxoadenine compound (human TLR7; HEK293 hTLR7, result in words)","TLR7/TLR8 selectivity in words (human TLR7; HEK293 hTLR7 vs hTLR8, relative to similar prior art compounds)","hTLR8 activity compared with parent core oxoadenine compound (human TLR8; HEK293 hTLR8, result in words)"
CCC[C@H](C)Oc1nc(N)c2[nH]c(=O)n(CC3CCN(CCO)CC3)c2n1,0.34 µM,0.6,0.53 µM,–,–,–
CCCCCCCC/C=C\CCCCCCCC(=O)OC[C@H](COP(=O)(O)OCCN1CCC(Cn2c(=O)[nH]c3c(N)nc(O[C@@H](C)CCC)nc32)CC1)OC(=O)CCCCCCC/C=C\CCCCCCCC [Compound 1],0.32 µM,0.7,0.47 µM,slightly more potent,TLR7 bias,slightly more potent
CCCCc1nc2c(N)nc3ccccc3c2n1CCO [reference compound],0.58 µM,3.1,0.19 µM,–,–,–
CC/C=C\CC(=O)OC[C@H](COP(=O)(O)OCCn1c(CCCC)nc2c(N)nc3ccccc3c21)OC(=O)C/C=C\CC [reference compound],34.6 µM,1.3,26 µM,–,–,–
